# Measurements as given in the NIST ThermoML archive (doi:10.1021/acs.jced.6b00893).
# ± gives the expanded uncertainty stated by the source.
# Settings: Liquid, Ebulliometric method (Recirculating still)
compound,measurement,setting,value
O [water],vapor or sublimation pressure,373.15 K,101.3 ± 0.5 kPa
c1ccccc1 [benzene],vapor or sublimation pressure,353.25 K,101.3 ± 0.5 kPa
C=CCO [2-propenol],vapor or sublimation pressure,369.75 K,101.3 ± 0.5 kPa
